In ChEMBL document CHEMBL4706512, “Design, synthesis and antitumor activity of novel thiophene-pyrimidine derivatives as EGFR inhibitors overcoming T790M and L858R/T790M mutations” (Eur J Med Chem, 2020):
pIC50: −log10 of the molar value.

Columns and labels:
HeLa = assay: Antiproliferative activity against human HeLa cells assessed as inhibition of cell proliferation measured after 72 hrs by MTT assay; type: functional, cell-based
A549 = assay: Antiproliferative activity against human A549 cells assessed as inhibition of cell proliferation measured after 72 hrs by MTT assay; type: functional, cell-based; details: A549, 72 h
MCF7 = assay: Antiproliferative activity against human MCF7 cells assessed as inhibition of cell proliferation measured after 72 hrs by MTT assay; type: functional, cell-based; details: MCF7, 72 h
A-431 [1] = assay: Antiproliferative activity against human A-431 cells assessed as inhibition of cell proliferation measured after 72 hrs by MTT assay; type: functional, cell-based; details: A-431, 72 h
L02 = assay: Cytotoxicity against human L02 cells assessed as inhibition of cell proliferation measured after 72 hrs by MTT assay; type: cell-based; details: L02, 72 h
NCI-H1975 [2] = assay: Antiproliferative activity against human NCI-H1975 cells harboring EGFR T790M/L858R double mutant assessed as inhibition of cell viability at 10 uM measured after 72 hrs by MTT assay; type: functional
Homo sapiens [3] = organism: Homo sapiens; assay: Inhibition of EGFR T790M mutant (unknown origin) using FAM-labelled peptide as substrate at 1 uM incubated for 10 mins in presence of ATP measured by mobility shift assay
[4] = target: T1, Epidermal growth factor receptor (Homo sapiens, UniProt P00533); assay: Inhibition of wild type EGFR (unknown origin) using FAM-labelled peptide as substrate incubated for 10 mins in presence of ATP measured by mobility shift assay
NCI-H1975 [5] = assay: Antiproliferative activity against human NCI-H1975 cells harboring EGFR T790M/L858R double mutant assessed as inhibition of cell viability at 1 uM measured after 72 hrs by MTT assay; type: functional
[6] = Inhibition of EGFR T790M mutant (unknown origin) using FAM-labelled peptide as substrate incubated for 10 mins in presence of ATP measured by mobility shift assay; parameters: species or system Homo sapiens
[7] = target: T1, Epidermal growth factor receptor; assay: Inhibition of wild type EGFR (unknown origin) using FAM-labelled peptide as substrate at 1 uM incubated for 10 mins in presence of ATP measured by mobility shift assay
NCI-H1975 [8] = assay: Antiproliferative activity against human NCI-H1975 cells harboring EGFR T790M/L858R double mutant assessed as inhibition of cell viability measured after 72 hrs by MTT assay; type: functional, cell-based; details: NCI-H1975, 72 h
[9] = Inhibition of EGFR T790M/L858R double mutant (unknown origin) using FAM-labelled peptide as substrate incubated for 10 mins in presence of ATP measured by mobility shift assay; parameters: species or system Homo sapiens
A-431 [10] = assay: Induction of apoptosis in human A-431 cells assessed as viable cells at 5 uM measured after 48 hrs by Annexin V-FITC staining based flow cytometry (reference value: 95.67%); type: functional; details: read-out: Activity
A-431 [11] = assay: Induction of apoptosis in human A-431 cells assessed as late apoptotic cells at 5 uM measured after 48 hrs by Annexin V-FITC staining based flow cytometry (reference value: 2.02%); type: functional
A-431 [12] = assay: Induction of apoptosis in human A-431 cells assessed as early apoptotic cells at 5 uM measured after 48 hrs by Annexin V-FITC staining based flow cytometry (reference value: 2.1%); type: functional
A-431 [13] = assay: Induction of apoptosis in human A-431 cells assessed as necrotic cells at 5 uM measured after 48 hrs by Annexin V-FITC staining based flow cytometry (reference value: 0.21%); type: functional
[14] = target: Vascular endothelial growth factor receptor 2 (Homo sapiens) (UniProt P35968); assay: Inhibition of KDR (unknown origin) using FAM-labelled peptide as substrate at 1 uM incubated for 10 mins in presence of ATP measured by mobility shift assay
[15] = target: Serine/threonine-protein kinase mTOR (Homo sapiens) (UniProt P42345); assay: Inhibition of mTOR (unknown origin) using FAM-labelled peptide as substrate at 1 uM incubated for 10 mins in presence of ATP measured by mobility shift assay
Homo sapiens [16] = organism: Homo sapiens; assay: Inhibition of PI3K (unknown origin) using FAM-labelled peptide as substrate at 1 uM incubated for 10 mins in presence of ATP measured by mobility shift assay
Homo sapiens [17] = organism: Homo sapiens; assay: Selectivity ratio of IC50 for wild type EGFR (unknown origin) to IC50 for EGFR T790M/L858R double mutant (unknown origin) measured by mobility shift assay
Homo sapiens [18] = organism: Homo sapiens; assay: Inhibition of EGFR T790M/L858R double mutant (unknown origin) using FAM-labelled peptide as substrate at 1 uM incubated for 10 mins in presence of ATP measured by mobility shift assay
[19] = target: Hepatocyte growth factor receptor (Homo sapiens) (UniProt P08581); assay: Inhibition of c-MET (unknown origin) using FAM-labelled peptide as substrate at 1 uM incubated for 10 mins in presence of ATP measured by mobility shift assay
Homo sapiens [20] = organism: Homo sapiens; assay: Selectivity ratio of IC50 for wild type EGFR (unknown origin) to IC50 for EGFR T790M mutant (unknown origin) measured by mobility shift assay

T1 sequence (P00533 whole entry): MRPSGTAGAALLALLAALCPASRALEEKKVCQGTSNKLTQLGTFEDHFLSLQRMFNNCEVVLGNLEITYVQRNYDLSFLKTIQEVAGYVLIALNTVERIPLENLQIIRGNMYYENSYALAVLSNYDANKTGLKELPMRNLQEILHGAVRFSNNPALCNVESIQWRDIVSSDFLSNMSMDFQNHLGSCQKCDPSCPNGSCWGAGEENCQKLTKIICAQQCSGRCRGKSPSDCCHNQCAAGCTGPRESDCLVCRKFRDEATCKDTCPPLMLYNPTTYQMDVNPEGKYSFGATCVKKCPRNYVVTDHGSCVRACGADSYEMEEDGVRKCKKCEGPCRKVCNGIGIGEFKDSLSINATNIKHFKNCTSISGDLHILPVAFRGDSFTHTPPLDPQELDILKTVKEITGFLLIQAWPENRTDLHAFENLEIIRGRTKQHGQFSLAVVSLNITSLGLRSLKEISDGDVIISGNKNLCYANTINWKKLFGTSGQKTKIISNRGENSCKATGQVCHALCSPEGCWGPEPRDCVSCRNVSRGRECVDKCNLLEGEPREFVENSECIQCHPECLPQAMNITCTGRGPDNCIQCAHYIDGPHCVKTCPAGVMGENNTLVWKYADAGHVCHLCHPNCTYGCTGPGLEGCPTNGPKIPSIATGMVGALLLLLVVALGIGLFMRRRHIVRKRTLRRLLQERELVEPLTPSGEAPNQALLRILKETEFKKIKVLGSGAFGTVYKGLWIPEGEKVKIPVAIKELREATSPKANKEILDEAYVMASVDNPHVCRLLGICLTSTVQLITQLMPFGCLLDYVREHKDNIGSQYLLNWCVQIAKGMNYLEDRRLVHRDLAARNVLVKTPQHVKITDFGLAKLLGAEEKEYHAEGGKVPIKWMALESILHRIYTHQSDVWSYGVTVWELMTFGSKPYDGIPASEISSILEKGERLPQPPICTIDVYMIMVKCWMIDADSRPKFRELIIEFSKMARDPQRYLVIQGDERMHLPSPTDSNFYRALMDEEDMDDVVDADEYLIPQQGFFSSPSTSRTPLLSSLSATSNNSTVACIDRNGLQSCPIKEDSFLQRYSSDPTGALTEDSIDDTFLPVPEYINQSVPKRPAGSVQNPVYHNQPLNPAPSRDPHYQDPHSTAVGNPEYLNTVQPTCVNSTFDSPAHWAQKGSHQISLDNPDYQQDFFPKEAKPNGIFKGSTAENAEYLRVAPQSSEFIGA
Sequence of Hepatocyte growth factor receptor (Homo sapiens) (P08581 whole entry): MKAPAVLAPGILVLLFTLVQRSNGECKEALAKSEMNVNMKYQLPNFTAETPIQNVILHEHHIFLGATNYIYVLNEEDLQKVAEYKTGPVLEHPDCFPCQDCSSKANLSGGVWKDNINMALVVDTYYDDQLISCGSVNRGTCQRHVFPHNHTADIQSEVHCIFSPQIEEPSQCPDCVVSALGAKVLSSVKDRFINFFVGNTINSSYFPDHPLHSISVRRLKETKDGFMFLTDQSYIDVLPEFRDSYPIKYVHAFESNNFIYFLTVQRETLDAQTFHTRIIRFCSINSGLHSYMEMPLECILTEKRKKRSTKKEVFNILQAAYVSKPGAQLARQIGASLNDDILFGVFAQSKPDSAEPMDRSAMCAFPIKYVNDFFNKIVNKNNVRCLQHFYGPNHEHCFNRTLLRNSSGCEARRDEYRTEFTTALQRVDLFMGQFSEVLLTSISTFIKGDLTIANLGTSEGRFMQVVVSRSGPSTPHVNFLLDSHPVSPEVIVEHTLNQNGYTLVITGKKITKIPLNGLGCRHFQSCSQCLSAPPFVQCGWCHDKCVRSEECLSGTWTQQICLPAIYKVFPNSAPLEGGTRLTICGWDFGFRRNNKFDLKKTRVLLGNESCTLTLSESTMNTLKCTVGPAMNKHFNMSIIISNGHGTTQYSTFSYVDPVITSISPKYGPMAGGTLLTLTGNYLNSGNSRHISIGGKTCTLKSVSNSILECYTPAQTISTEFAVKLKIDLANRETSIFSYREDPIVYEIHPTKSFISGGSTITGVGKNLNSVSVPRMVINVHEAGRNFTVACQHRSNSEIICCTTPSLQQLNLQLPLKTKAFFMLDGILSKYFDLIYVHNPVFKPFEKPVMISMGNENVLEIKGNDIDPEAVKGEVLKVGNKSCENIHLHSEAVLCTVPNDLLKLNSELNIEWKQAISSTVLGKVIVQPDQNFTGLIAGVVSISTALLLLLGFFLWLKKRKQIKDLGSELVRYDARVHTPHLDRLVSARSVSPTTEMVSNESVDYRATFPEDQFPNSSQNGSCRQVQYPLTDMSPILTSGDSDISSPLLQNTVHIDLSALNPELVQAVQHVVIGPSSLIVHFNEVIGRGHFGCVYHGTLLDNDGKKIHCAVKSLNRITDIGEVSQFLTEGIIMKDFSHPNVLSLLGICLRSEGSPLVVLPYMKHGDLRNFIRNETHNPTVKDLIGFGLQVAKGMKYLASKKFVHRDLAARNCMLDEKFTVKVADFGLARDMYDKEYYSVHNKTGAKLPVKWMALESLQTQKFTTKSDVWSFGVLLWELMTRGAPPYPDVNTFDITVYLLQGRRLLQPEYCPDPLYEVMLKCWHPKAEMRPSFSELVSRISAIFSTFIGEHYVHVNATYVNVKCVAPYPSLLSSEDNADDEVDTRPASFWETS
Sequence of Vascular endothelial growth factor receptor 2 (Homo sapiens) (P35968 whole entry): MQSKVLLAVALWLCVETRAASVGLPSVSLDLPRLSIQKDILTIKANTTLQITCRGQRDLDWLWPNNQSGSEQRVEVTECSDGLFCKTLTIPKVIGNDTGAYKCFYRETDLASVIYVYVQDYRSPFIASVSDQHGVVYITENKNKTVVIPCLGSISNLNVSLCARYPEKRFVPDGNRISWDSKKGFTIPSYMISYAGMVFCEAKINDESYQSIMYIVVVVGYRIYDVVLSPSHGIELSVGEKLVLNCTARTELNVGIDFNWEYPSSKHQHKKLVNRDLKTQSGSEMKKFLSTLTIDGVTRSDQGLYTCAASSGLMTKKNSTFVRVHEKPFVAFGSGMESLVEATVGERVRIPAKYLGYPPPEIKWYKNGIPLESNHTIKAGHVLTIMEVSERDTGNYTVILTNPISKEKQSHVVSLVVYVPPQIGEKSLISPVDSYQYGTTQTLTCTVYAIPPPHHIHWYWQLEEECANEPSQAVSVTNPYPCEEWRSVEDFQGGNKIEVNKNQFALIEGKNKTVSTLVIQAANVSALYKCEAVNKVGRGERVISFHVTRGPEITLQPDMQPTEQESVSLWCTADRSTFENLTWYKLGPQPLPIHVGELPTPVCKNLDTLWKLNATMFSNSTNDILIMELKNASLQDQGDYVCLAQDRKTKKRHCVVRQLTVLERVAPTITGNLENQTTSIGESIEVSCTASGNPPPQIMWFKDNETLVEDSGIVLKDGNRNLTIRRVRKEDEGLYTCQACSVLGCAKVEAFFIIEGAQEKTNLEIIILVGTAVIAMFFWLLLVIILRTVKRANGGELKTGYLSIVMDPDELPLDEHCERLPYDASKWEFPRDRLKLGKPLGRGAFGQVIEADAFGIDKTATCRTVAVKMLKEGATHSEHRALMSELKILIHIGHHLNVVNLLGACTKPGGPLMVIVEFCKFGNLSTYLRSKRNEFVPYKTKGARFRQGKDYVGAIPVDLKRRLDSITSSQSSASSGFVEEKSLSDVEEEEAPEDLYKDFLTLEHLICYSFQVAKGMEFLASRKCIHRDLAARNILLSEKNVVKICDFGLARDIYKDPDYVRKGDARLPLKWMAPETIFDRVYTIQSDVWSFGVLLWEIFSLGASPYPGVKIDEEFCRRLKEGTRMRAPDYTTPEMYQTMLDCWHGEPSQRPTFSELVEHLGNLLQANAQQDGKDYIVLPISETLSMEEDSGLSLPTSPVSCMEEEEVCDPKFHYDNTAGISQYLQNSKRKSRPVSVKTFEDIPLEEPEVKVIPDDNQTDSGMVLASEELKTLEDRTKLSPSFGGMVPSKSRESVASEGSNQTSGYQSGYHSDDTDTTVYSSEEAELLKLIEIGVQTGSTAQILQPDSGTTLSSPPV

Row | Compound | pIC50 (HeLa) | pIC50 (A549) | pIC50 (MCF7) | pIC50 (A-431 [1]) | pIC50 (L02) | other results
1 | COc1ccc(Nc2nc(Oc3cccc(NC(=O)/C=C/C(C)C)c3)c3sccc3n2)cn1 | < 4.30 | < 4.30 | < 4.30 | < 4.30 | – | –
2 | CC/C=C/C(=O)Nc1cccc(Oc2nc(Nc3ccn(C)n3)nc3ccsc23)c1 | 4.31 | 4.59 | < 4.30 | 4.44 | – | –
3 | CC/C=C/C(=O)Nc1cccc(Oc2nc(Nc3cccc(OC)c3)nc3ccsc23)c1 | 4.53 | 4.71 | 4.36 | 4.53 | < 4.30 | –
4 | C/C=C/C(=O)Nc1cccc(Oc2nc(Nc3ccc(OC)nc3)nc3ccsc23)c1 | < 4.30 | 4.50 | < 4.30 | 4.43 | < 4.30 | –
5 | CC(C)/C=C/C(=O)Nc1cccc(Oc2nc(Nc3cccc(C#N)c3)nc3ccsc23)c1 | 4.44 | 4.72 | < 4.30 | 4.62 | < 4.30 | –
6 | CCC/C=C/C(=O)Nc1cccc(Oc2nc(Nc3ccc(OC)nc3)nc3ccsc23)c1 | < 4.30 | 4.67 | < 4.30 | 4.52 | 4.38 | –
7 | CC(C)/C=C/C(=O)Nc1cccc(Oc2nc(Nc3ccn(C)n3)nc3ccsc23)c1 | 4.31 | 4.52 | < 4.30 | 4.34 | – | –
8 | CCC/C=C/C(=O)Nc1cccc(Oc2nc(Nc3cccc(C#N)c3)nc3ccsc23)c1 | 4.38 | 4.78 | 4.31 | 4.69 | < 4.30 | –
9 | CCC/C=C/C(=O)Nc1cccc(Oc2nc(Nc3cccc(OC)c3)nc3ccsc23)c1 | 5.11 | 5.25 | 5.30 | 5.09 | < 4.30 | inhibition at 10 µM (NCI-H1975 [2]): 14.6%; inhibition (Homo sapiens [3]): 24.5%; pIC50 [4]: < 6.00; inhibition at 1 µM (NCI-H1975 [5]): -0.18%; pIC50 [6]: < 6.00; inhibition [7]: 4%
10 | C=C(C)C(=O)Nc1cccc(Oc2nc(Nc3ccn(C)n3)nc3ccsc23)c1 | < 4.30 | < 4.30 | < 4.30 | < 4.30 | – | –
11 | C=C(F)C(=O)Nc1cccc(Oc2nc(Nc3ccn(C)n3)nc3ccsc23)c1 | < 4.30 | < 4.30 | < 4.30 | < 4.30 | – | –
12 | C/C=C/C(=O)Nc1cccc(Oc2nc(Nc3cccc(OC)c3)nc3ccsc23)c1 | 4.70 | 4.98 | 4.84 | 4.88 | 4.34 | –
13 | CCC/C=C/C(=O)Nc1cccc(Oc2nc(Nc3ccc(OC)cc3)nc3ccsc23)c1 | 4.50 | 5.28 | 4.46 | 5.37 | < 4.30 | inhibition at 10 µM (NCI-H1975 [2]): 94.3%; inhibition (Homo sapiens [3]): 21.7%; pIC50 (NCI-H1975 [8]): 5.67; pIC50 [4]: < 6.00; inhibition at 1 µM (NCI-H1975 [5]): 3.25%; pIC50 [6]: < 6.00; inhibition [7]: 7.4%
14 | C=CC(=O)Nc1cccc(Oc2nc(Nc3ccc(N4CCN(C)CC4)cc3)nc3ccsc23)c1 [OLMUTINIB] | 5.03 | 5.37 | 5.16 | 5.28 | 4.59 | inhibition at 10 µM (NCI-H1975 [2]): 74.6%; inhibition (Homo sapiens [3]): 98.1%; pIC50 (NCI-H1975 [8]): 6.28; pIC50 [9]: 7.90; inhibition at 1 µM (NCI-H1975 [5]): 6.08%; viability at 5 µM (A-431 [10]): 78.7%; Activity (A-431 [11]): 14.78%; Activity (A-431 [12]): 5.17%; pIC50 [6]: 7.32; Activity (A-431 [13]): 1.37%
15 | COc1ccc(Nc2nc(Oc3cccc(NC(=O)C=C(C)C)c3)c3sccc3n2)cc1 | 4.54 | 4.74 | 4.34 | 4.75 | 4.31 | –
16 | C/C=C/C(=O)Nc1cccc(Oc2nc(Nc3ccn(C)n3)nc3ccsc23)c1 | 4.36 | 4.53 | < 4.30 | 4.48 | – | –
17 | COc1ccc(Nc2nc(Oc3cccc(NC(=O)/C=C/C(C)C)c3)c3sccc3n2)cc1 | 4.35 | 4.42 | < 4.30 | 4.60 | – | –

Row | Compound | pIC50 (HeLa) | pIC50 (A549) | pIC50 (MCF7) | pIC50 (A-431 [1]) | pIC50 (L02) | other results
18 | CCC/C=C/C(=O)Nc1cccc(Oc2nc(Nc3ccn(C)n3)nc3ccsc23)c1 | 4.49 | 4.58 | 4.41 | 4.63 | – | –
19 | C/C=C/C(=O)Nc1cccc(Oc2nc(Nc3ccc(OC)cc3)nc3ccsc23)c1 | 4.35 | 4.86 | < 4.30 | 4.93 | < 4.30 | –
20 | COc1cccc(Nc2nc(Oc3cccc(NC(=O)/C=C/C(C)C)c3)c3sccc3n2)c1 | 4.57 | 4.43 | 4.36 | 4.63 | – | –
21 | C=CC(=O)Nc1cccc(Oc2nc(Nc3ccc(OC)nc3)nc3ccsc23)c1 | 4.33 | 4.69 | < 4.30 | 4.56 | < 4.30 | –
22 | COc1ccc(Nc2nc(Oc3cccc(NC(=O)C=C(C)C)c3)c3sccc3n2)cn1 | < 4.00 | 4.40 | < 4.00 | < 4.30 | 4.43 | –
23 | CC(C)=CC(=O)Nc1cccc(Oc2nc(Nc3ccn(C)n3)nc3ccsc23)c1 | 4.40 | 4.50 | 4.36 | 4.41 | – | –
24 | C/C=C/C(=O)Nc1cccc(Oc2nc(Nc3cccc(C#N)c3)nc3ccsc23)c1 | 4.63 | 4.95 | 4.48 | 4.70 | 4.32 | –
25 | CC/C=C/C(=O)Nc1cccc(Oc2nc(Nc3ccc(OC)nc3)nc3ccsc23)c1 | 4.30 | 4.59 | < 4.30 | 4.58 | < 4.30 | –
26 | C=CC(=O)Nc1cccc(Oc2nc(Nc3ccc(OC)cc3)nc3ccsc23)c1 | 4.58 | 5.06 | 4.80 | 5.03 | < 4.30 | inhibition at 10 µM (NCI-H1975 [2]): 83.8%; pIC50 (NCI-H1975 [8]): 6.68; inhibition at 1 µM (NCI-H1975 [5]): 59.1%
27 | CC(C)=CC(=O)Nc1cccc(Oc2nc(Nc3cccc(C#N)c3)nc3ccsc23)c1 | 4.70 | 4.77 | 4.39 | 4.55 | < 4.30 | –
28 | COc1cccc(Nc2nc(Oc3cccc(NC(=O)C=C(C)C)c3)c3sccc3n2)c1 | 4.58 | 4.56 | 4.45 | 4.59 | – | –
29 | CC/C=C/C(=O)Nc1cccc(Oc2nc(Nc3ccc(OC)cc3)nc3ccsc23)c1 | 4.44 | 4.79 | < 4.30 | 4.82 | < 4.30 | –
30 | CC/C=C/C(=O)Nc1cccc(Oc2nc(Nc3cccc(C#N)c3)nc3ccsc23)c1 | 4.16 | 4.83 | < 4.30 | 4.44 | < 4.30 | –
31 | C=CC(=O)Nc1cc(Nc2nccc(-c3cn(C)c4ccccc34)n2)c(OC)cc1N(C)CCN(C)C [OSIMERTINIB] | 5.74 | 6.17 | 5.44 | […] | < 4.30 | –
32 | C=CC(=O)Nc1cccc(Oc2nc(Nc3ccn(C)n3)nc3ccsc23)c1 | 4.76 | 4.58 | 4.42 | 4.86 | – | –
33 | C=CC(=O)Nc1cccc(Oc2nc(Nc3cccc(OC)c3)nc3ccsc23)c1 | 4.79 | 5.36 | 4.72 | 5.32 | 4.52 | inhibition [14]: -0.2%; inhibition at 10 µM (NCI-H1975 [2]): 86.8%; inhibition (Homo sapiens [3]): 94.8%; inhibition [15]: 9.7%; inhibition (Homo sapiens [16]): 31.6%; pIC50 (NCI-H1975 [8]): 6.38; pIC50 [4]: < 6.00; pIC50 [9]: 7.82; inhibition at 1 µM (NCI-H1975 [5]): 50.6%; Selectivity ratio (Homo sapiens [17]): > 65; inhibition (Homo sapiens [18]): 104%; inhibition [19]: 0.5%; Selectivity ratio (Homo sapiens [20]): > 13; pIC50 [6]: 7.12; inhibition [7]: 24%
